Legend:
[1] = Human liver microsome stability test; type: in vitro ADME; details: human, human liver microsomes
Description: The human liver microsome stability test was performed by incubating the compound and human liver microsomes in vitro. First, the compound to be tested was prepared into a 10 mM stock solution in DMSO solvent, and then the compound was diluted to 0.5 mM with acetonitrile. Human liver microsomes (Corning) were diluted with PBS into a microsome/buffer solution, and the solution was used to dilute 0.5 mM compound into a working solution, in which the concentration of the compound was 1.5 μM, and the concentration of human liver microsomes was 0.75 mg/mL. A deep-well plate was taken, 30 μL of the working solution was added per well, and then 15 μL of pre-heated 6 mM NADPH solution was added thereto to initiate a reaction, and the reaction was incubated at 37° C. At 0, 5, 15, 30 and 45 min of the incubation, 135 μL of acetonitrile was added to the corresponding wells to terminate the reaction. After the reaction was terminated with acetonitrile at the last time point of 45 min, the deep-well plate was vortexed and vibrated for 10 min (600 rpm/min), and then centrifuged for 15 min. After centrifugation, the supernatant was collected, and added with purified water in a ratio of 1:1 to perform LC-MS/MS detection. A ratio of a peak area of compound to a peak area of internal standard at each time point was obtained, and the peak area ratios of the compound at 5, 15, 30 and 45 min were compared with the peak area ratio at 0 min to calculate the remaining percentage of the compound at each time point. T1/2 was calculated by using GraphPad 5 software.

[2] = Plasma protein binding by equilibrium dialysis, mouse plasma; type: in vitro ADME; details: 37° C., read-out: Free fraction in plasma, Mouse (%)
Description: (§1) Plasma protein binding rate of compounds was detected by equilibrium dialysis (HTDialysis, HTD 96b). The compound was prepared into a […] stock solution with DMSO, and then 25-fold diluted with 0.05 M sodium phosphate buffer as a working solution. A blank 96-well plate was taken and preloaded with 380 μL of plasma per well. The plasma was then added with the working solution at 20 μL/well and mixed well, with the compound at a final concentration of 1 μM, containing 0.2% DMSO per well.
(§2) 100 μL of 0.05 M sodium phosphate buffer was added to the reception-side of each dialysis chamber (HTD 96b), and then 100 μL of plasma containing the compound was added to the supply-side. The dialysis chamber was covered with a plastic lid, shaken and incubated at 37° C. for 5 h.
(§3) After incubation, 25 μL of samples were taken from each of the supply-side and the reception-side of the dialysis chamber and placed in the blank 96-well plate. An equal volume of plasma was added to each of the supply-side samples while an equal volume of 0.05 M sodium phosphate buffer was added to each of the reception-side samples and mixed well. The 96-well plate was added with an acetonitrile solution containing internal standard at 200 μL per well, vortexed and shaken at 600 rpm for 10 min, and centrifuged at 5594 g for 15 min (Thermo Multifuge×3R). 50 μL of the supernatant was then transferred to a new 96-well plate, and the samples were mixed with 50 μL of ultra-pure water for LC-MS/MS analysis.
(§4) Plasma protein binding rate and free fraction were calculated using the following formulas: % binding rate=100×([supply-side concentration]5h−[reception-side concentration]5h)/[supply-side concentration]5h. % free fraction=100−% binding rate.

[3] = Pharmacokinetic test in mice; type: in vivo; details: mouse, plasma; male ICR mice, oral gavage, 10 mg/kg
Description: Male ICR mice (20 to 25 g) were used and fasted overnight. Three mice were taken and orally administered by gavage (10 mg/kg). Blood was collected before the administration, and at 15 min, 30 min, 1 h, 2 h, 4 h, 8 h and 24 h after the administration. 6,800 g of the blood samples were centrifuged at 2 to 8° C. for 6 min, and plasma was collected and stored at −80° C. The plasma at each time point was taken and added with an acetonitrile solution containing internal standard in 3 to 5 times the amount, vortexed and mixed for 1 min, and centrifuged at 13,000 rpm/min at 4° C. for 10 min. The supernatant was collected, added with water in 3 times the amount, and mixed. An appropriate amount of the mixture was taken for LC-MS/MS analysis. The main pharmacokinetic parameters were analyzed using WinNonlin 7.0 software with non-compartmental model.

[4] = Plasma protein binding by equilibrium dialysis, human plasma; type: in vitro ADME; details: 37° C., read-out: Free fraction in plasma, Human (%)
Description: as §1, §2, §3, §4

KRAS G12C-SOS1 = KRAS G12C-SOS1 (Homo sapiens (Human), UniProt Q07889); assay: Inhibition test of compounds on KRAS G12C::SOS1 binding; details: GST-KRAS G12C, His-SOS1
Description: The compound to be tested was prepared into a 10 mM stock solution with DMSO, and the compound was serially diluted using 1× test buffer. 0.1 μL of the compound solution with different concentrations was transferred to a 384-well plate. […] 5 μL of His-SOS1 was added to the 384-well plate, centrifuged at 1000 rpm for 1 min, and incubated at room temperature for 15 min.
After incubation, 10 μL of a mixed solution of anti-6his-Tb monoclonal antibody (Cisbio, Cat. No. 61HI2TLA) and anti-GST-XL665 monoclonal antibody (Cisbio, Cat. No. 61GSTXLA) was added to the test well, centrifuged at 1000 rpm for 1 min, and incubated at room temperature for 1 h.
After incubation, the fluorescence signal ratios at 665 nm and 615 nm were read on a multifunctional microplate reader (Perkin Elmer, Envision 2104), and the IC50 values were calculated using Graphpad 5 software.

[5] = system: ERK phosphorylation level in DLD-1 cells; assay: Inhibition of ERK phosphorylation level in DLD-1 cells (intracellular western blot); type: cell-based; details: Homo sapiens
Description: Intracellular western blot quantitative analysis was used to detect the inhibitory level of compounds on ERK phosphorylation in DLD-1 cells.
DLD-1 cells (ATCC, CCL-221) were seeded in a T75 culture flask at 2.5×10^6 cells/flask and cultured in a RPMI 1640 medium containing 10% FBS for 2 days. On day 3, the cells were seeded on a 384-well plate, and cultured overnight at 37° C., 5% CO2. After overnight culture, the plate was added with serially diluted compounds (the final content of DMSO was 0.5%), the negative group was added with DMSO, and incubated in a 37° C., 5% CO2 incubator.
The cells were fixed, washed once with PBS, treated to disrupt membranes, and blocked at room temperature for 1 h. The blocking solution was removed. The plate was added with primary antibody (CST, Cat. No. #4370S), and incubated overnight at 4° C. The plate was washed 3 times with PBST (PBS solution added with 0.05% Tween-20) and soaked for 2 min each time. The plate was added with secondary antibody (LI-COR, Cat. No. 926-32211) and incubated at room temperature in the dark. The plate was washed 3 times with PBST and soaked for 2 min each time. The plate was centrifuged at 1000 rpm for 1 min, scanned on a two-color infrared laser imaging system (Odyssey® CLX) to read the signal.
Relative signal=800-channel signal values/700-channel signal values.
Relative expression level of ERK phosphorylation=(test compound−control compound I)/(DMSO group−control compound I)
(§5) IC50 values were calculated using Graphpad 5 software.

H358 cells = assay: Inhibition of 3D cell proliferation (3D CellTiter-Glo); type: cell-based; details: Homo sapiens, NCI-H358, 168 h, read-out: IC50 (nM), inhibition of 3D proliferation of H358 cells, 7 days
Description: H358 cells were seeded in a T75 culture flask and cultured in a RPMI 1640 medium containing 10% FBS for 2 days for subsequent experiments in which the cells would be cultured or seeded on a 384-well plate.
On day 1, the cells were seeded on the 384-well plate, with 40 μL of medium added per well and serially diluted compounds or DMSO added per well, and an additional well without seeded cells but with medium was set up as a blank control. After culture at 37° C., 5% CO2 for 7 days, the plate was added with 3D CellTiter-Glo reagent (Promega, Cat. No. G9683) on day 8, shaken at 320 rpm for 20 min, and left at room temperature for 2 h. Luminescence signals were read on a multifunctional microplate reader. Cell viability inhibition rate was calculated as:
Cell viability inhibition rate=(DMSO group−test compound)/(DMSO group−blank control group)×100%
as §5

[6] = system: Mia Paca-2 pancreatic cancer; assay: Mia Paca-2 pancreatic cancer in vivo efficacy test; design: species or system mice
Description: (§6) After one week of adaptive feeding of mice, Mia Paca-2 cells in a log phase were resuspended in serum-free DMEM, and then mixed with Matrigel in a ratio of 1:1.1×10^7 Mia Paca-2 cells were inoculated subcutaneously at the right flank at 100 μL per mouse, and tumor growth was observed regularly. When the tumor grew to an average volume of 150 to 200 mm^3, the mice were randomly divided into a model group and an administration group (single drug, in combination with trametinib) based on the tumor size and body weight. The tumor size and body weight were measured and recorded before and during the administration. After the treatment, the tumor size in the model group was compared with that in the administration group to determine the efficacy.

LOVO colorectal cancer = LOVO colorectal cancer in vivo efficacy test; design: species or system mice; details: 25 mg/kg BID
Description: as §6, with “LOVO” for “Mia Paca-2”, “F12K, 5×10^6 LOVO” for “DMEM, and then mixed with Matrigel in a ratio of 1:1.1×10^7 Mia Paca-2”, “group” for “group (single drug, in combination with trametinib)”

KRAS G12C-SOS1, sequence (Q07889 whole entry, stated change not applied): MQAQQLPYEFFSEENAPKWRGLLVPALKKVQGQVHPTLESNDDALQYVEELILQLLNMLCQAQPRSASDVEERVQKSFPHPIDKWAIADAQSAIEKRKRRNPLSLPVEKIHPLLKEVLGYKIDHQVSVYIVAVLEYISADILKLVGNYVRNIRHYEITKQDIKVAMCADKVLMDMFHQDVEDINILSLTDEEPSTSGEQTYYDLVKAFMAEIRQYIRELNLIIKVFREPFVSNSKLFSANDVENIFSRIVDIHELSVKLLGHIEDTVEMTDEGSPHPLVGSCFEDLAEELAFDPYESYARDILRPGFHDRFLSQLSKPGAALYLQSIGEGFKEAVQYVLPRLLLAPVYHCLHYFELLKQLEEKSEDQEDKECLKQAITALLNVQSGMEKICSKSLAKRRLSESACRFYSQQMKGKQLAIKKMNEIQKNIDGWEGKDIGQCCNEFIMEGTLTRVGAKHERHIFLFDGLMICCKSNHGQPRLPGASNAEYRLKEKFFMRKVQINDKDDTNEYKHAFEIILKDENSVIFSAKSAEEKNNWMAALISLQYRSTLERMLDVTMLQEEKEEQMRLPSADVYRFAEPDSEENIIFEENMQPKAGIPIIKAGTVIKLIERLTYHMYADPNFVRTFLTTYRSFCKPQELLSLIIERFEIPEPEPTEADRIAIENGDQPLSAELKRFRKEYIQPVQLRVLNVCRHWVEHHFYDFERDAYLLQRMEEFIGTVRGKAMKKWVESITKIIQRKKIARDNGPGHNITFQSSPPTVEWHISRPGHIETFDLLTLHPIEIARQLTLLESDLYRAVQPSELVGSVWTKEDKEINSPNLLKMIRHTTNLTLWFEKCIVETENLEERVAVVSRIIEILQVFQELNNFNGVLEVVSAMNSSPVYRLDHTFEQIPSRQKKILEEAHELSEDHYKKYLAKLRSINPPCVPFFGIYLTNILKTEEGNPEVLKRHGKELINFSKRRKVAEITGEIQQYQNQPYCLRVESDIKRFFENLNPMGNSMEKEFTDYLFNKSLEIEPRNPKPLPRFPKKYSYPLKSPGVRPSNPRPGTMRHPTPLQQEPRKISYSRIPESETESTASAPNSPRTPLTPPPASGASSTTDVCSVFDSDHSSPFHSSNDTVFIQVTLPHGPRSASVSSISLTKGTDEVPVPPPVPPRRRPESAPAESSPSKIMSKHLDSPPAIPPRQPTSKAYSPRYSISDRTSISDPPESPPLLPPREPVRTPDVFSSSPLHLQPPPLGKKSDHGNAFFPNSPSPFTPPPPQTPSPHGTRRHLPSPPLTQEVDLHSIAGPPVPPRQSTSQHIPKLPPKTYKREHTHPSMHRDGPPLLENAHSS

| SMILES | half-life at 1 µM [1] | fraction unbound at 5 h, 1 µM [2] | AUC(0-t) [3] | Cmax [3] | Tmax [3] | half-life [3] | fraction unbound at 5 h, 1 µM [4] | IC50 (KRAS G12C-SOS1) | IC50 [5] | IC50 (H358 cells) | Average tumor weight at the end of the treatment ([6]; Mia Paca-2, 25 mg/kg BID) | Tumor weight inhibition rate (relative to the vehicle group) ([6]; Mia Paca-2, 25 mg/kg BID) | Average tumor weight at the end of the treatment ([6]; Mia Paca-2, 50 mg/kg BID) | Tumor weight inhibition rate (relative to the vehicle group) ([6]; Mia Paca-2, 50 mg/kg BID) | Average tumor weight at the end of the treatment (LOVO colorectal cancer) | Tumor weight inhibition rate (relative to the vehicle group) (LOVO colorectal cancer) |
| --- | --- | --- | --- | --- | --- | --- | --- | --- | --- | --- | --- | --- | --- | --- | --- | --- |
| Cc1nc(N[C@H](C)c2cccc(C(F)(F)F)c2C)c2cn(C3(CF)CC3)c(=O)cc2n1 [Control compound I, reference compound] | 1.07 h | 0.005 | 365 ng·h/mL | 176 ng/mL | 0.25 h | 1.35 h | 0.009 | – | – | – | – | – | – | – | – | – |
| Cc1nc(N[C@H](C)c2cccc(S(F)(F)(F)(F)F)c2)c2cn(C3(C(F)F)CC3)c(=O)cc2n1 [Compound I-23, (R)-6-(1-(difluoromethyl)cyclopropyl)-2-methyl-4-((1-(3-(pentafluorosulfanyl)phenyl)ethyl)amino)pyrido[4,3-d]pyrimidin-7(6H)-one] | – | – | 44100 ng·h/mL | 4240 ng/mL | 2 h | 2.33 h | – | 4.9 nM | 159 nM | 12 nM | 0.45 g | 61% | 0.38 g | 67% | 0.65 g | 53% |
| Cc1nc(N[C@H](C)c2cccc(S(=O)(=O)C(F)F)c2F)c2cn(C3(CF)CC3)c(=O)cc2n1 [Compound I-5, (R)-4-((1-(3-((difluoromethyl)sulfonyl)-2-fluorophenyl)ethyl)amino)-6-(1-(fluoromethyl)cyclopropyl)-2-methylpyrido[4,3-d]pyrimidin-7(6H)-one] | – | 0.114 | – | – | – | – | 0.077 | 10 nM | – | – | – | – | – | – | – | – |

Source: US20240166645A1, “PYRIDOPYRIMIDINONE DERIVATIVE, PREPARATION METHOD THEREFOR, AND USE THEREOF” (Wuhan Humanwell Innovative Drug Research and Development …, priority 2021, published 2024)
